{"source": "patent US20120276064A1", "about": "“METHODS AND COMPOSITIONS FOR REJUVENATION AND EXPANSION OF STEM CELLS” (priority 2011, published 2012)", "key": {"[1]": {"tested_on": "old MuSCs transplanted into notexin-injured old muscle", "assay": "Syngeneic transplantation of cultured old MuSC progeny into notexin-injured old C57BL/6 muscles, engraftment", "assay_type": "in vivo, mouse", "description": "MuSC transplantation. MuSCs were transplanted immediately following FACS isolation or after collection from cell culture directly into the tibialis anterior muscle of recipient mice as previously described. Cells from GFP/Luciferase or Myf5^nLacZl+/Luciferase mice were transplanted into gender-matched, hindlimb-irradiated NOD/SCID (Jackson) mice. NOD/SCID (2-4 months of age, median 2 months) mice were anesthetized with ketamine (2.4 mg per mouse) and xylazine (240 μg per mouse) by intraperitoneal injection then were irradiated by a single dose of 18 Gy administered to the hindlimbs, with the rest of the body shielded in a lead jig. Transplantation was performed within three days post-irradiation. […] Freshly isolated or cultured cells were counted by hemocytometer and resuspended at desired cell concentrations in PBS with 2.5% goat serum and 1 mM EDTA. Cells were collected from hydrogel cultures by incubation with 0.5% trypsin in PBS for 2 min at 37° C. and counted using a hemocytometer. […]\nBioluminescence imaging. […] Digital images were recorded and analyzed using Living Image software (Caliper LifeSciences). Images were analyzed with a consistent region-of-interest (ROI) placed over each hindlimb to calculate a bioluminescence signal. […]"}, "[2]": {"tested_on": "MuSCs transplanted into tibialis anterior muscle", "assay": "Transplantation of cultured MuSCs into irradiated NOD/SCID mice, engraftment by bioluminescence imaging", "assay_type": "in vivo, mouse", "details": "for Improvement of transplantation function of MuSCs cultured on rigid hydrogels: young and old MuSCs, rigid (~10^6 kPa) hydrogel, 10 μM, one week, 100 cells transplanted", "description": "MuSC transplantation. MuSCs were transplanted immediately following FACS isolation or after collection from cell culture directly into the tibialis anterior muscle of recipient mice as previously described. Cells from GFP/Luciferase or Myf5^nLacZl+/Luciferase mice were transplanted into gender-matched, hindlimb-irradiated NOD/SCID (Jackson) mice. NOD/SCID (2-4 months of age, median 2 months) mice were anesthetized with ketamine (2.4 mg per mouse) and xylazine (240 μg per mouse) by intraperitoneal injection then were irradiated by a single dose of 18 Gy administered to the hindlimbs, with the rest of the body shielded in a lead jig. Transplantation was performed within three days post-irradiation. In syngeneic transplant studies, cells from old C57BL/6 mice were transplanted into gender-matched, littermate old C57BL/6 mice (Jackson) following culture for one week on soft hydrogels. Specifically, old C57BL/6 MuSCs were infected with a GFP/Luciferase lentivirus added at day 2 of culture for 24 hours. Recipient old C57BL/6 mice were acutely injured by a single 10 μl intramuscular injection of notexin (10 μg/ml; Latoxan, France) two days prior to cell transplantation, but were not irradiated. Freshly isolated or cultured cells were counted by hemocytometer and resuspended at desired cell concentrations in PBS with 2.5% goat serum and 1 mM EDTA. Cells were collected from hydrogel cultures by incubation with 0.5% trypsin in PBS for 2 min at 37° C. and counted using a hemocytometer. Cells were transplanted by intramuscular injection into the tibialis anterior muscle in a 10 μl volume.\nTissue histology. Recipient tibialis anterior muscle tissues were prepared for histology as previously described to analyze GFP expression. Transverse sections were incubated with anti-laminin (Millipore, Billerica, Calif.), anti-GFP (Invitrogen) antibodies, and/or anti-β-galactosidase (Abcam, Cambridge, Mass.) with appropriate secondary antibodies (Invitrogen). Nuclei were counter-stained with Hoechst 33342 (Invitrogen). Images were acquired with an AxioPlan2 epi-fluorescent microscope (Carl Zeiss Microimaging, Thornwood, N.Y.) with Plan NeoFluar 10×/0.30NA or 20×/0.75NA objectives (Carl Zeiss) and an ORCA-ER digital camera (Hamamatsu Photonics, Bridgewater, N.J.). Digital images were captured in OpenLab software (Improvision, Waltham, Mass.) and assembled in Photoshop software (Adobe, San Jose, Calif.) with consistent contrast adjustments across all images from the same stain.\nBioluminescence imaging. Bioluminescence imaging was performed using a Xenogen-100 system, as previously described. Briefly, mice were anesthetized under isofluorane and 100 μL luciferin (0.1 mmol/kg; Caliper LifeSciences, Hopkinton, Mass.) in PBS was administered by intraperitoneal injection. Following luciferin administration, images were acquired every minute for 15 min. Images acquired at 12 min post-luciferin injection were used for analysis. Digital images were recorded and analyzed using Living Image software (Caliper LifeSciences). Images were analyzed with a consistent region-of-interest (ROI) placed over each hindlimb to calculate a bioluminescence signal. A bioluminescence signal value of 80,000 photons/s was used to define a engraftment threshold, as this level corresponds to the histological detection of one or more GFP^+ myofiber (see FIG. 8A). BLI imaging was performed one month post-transplant unless otherwise stated.\nMuSC culture and treatment. Following isolation, MuSCs were pelleted and resuspended into myogenic cell culture medium containing DMEM/F10 (50:50), 15% FBS, 2.5 ng/ml bFGF, and 1% penicillin/streptomycin. MuSCs were seeded at 1000 cells per well (24-well plate size wells, 2.0 cm^2 surface area) on laminin-tethered hydrogels of either 12 kPa (soft) or ˜10^6 kPa (rigid) rigidities. Cells were maintained at 37° C. in 5% CO2. Media was changed daily. […]"}}, "note": "Entries after “also recorded” stand apart in the source; their conditions may differ.", "data": [{"smiles": "Oc1ccc(-c2nc(-c3ccncc3)c(-c3ccc(F)cc3)[nH]2)cc1", "note": "[SB202190]", "values": [{"measurement": "Contribution to myofibers (histology)", "setting": "[1]; progeny of 100 SB-treated old MuSCs, old recipient muscle, two months after transplantation", "value": "substantial contribution to myofibers"}, {"measurement": "Engraftment frequency in aged syngeneic recipient muscle", "setting": "[1]; progeny of 100 old MuSCs cultured with 10 μM SB, notexin-injured old C57BL/6 mice, one month", "value": 88, "unit": "%"}, {"measurement": "Engraftment frequency for 100-cell transplants", "setting": "[2]; old MuSCs cultured one week on soft hydrogel with 10 μM, one month post-transplant", "value": 41, "unit": "%"}, {"measurement": "Transplant engraftment frequency of the progeny of 10 old MuSCs", "setting": "[2]; old MuSCs one week on soft hydrogels + SB (~300 cells), one month post-transplant", "value": 79, "unit": "%"}, {"measurement": "Extent of engraftment (BLI and histology) compared to freshly isolated MuSCs", "setting": "[2]; progeny of 10 old MuSCs after one week on soft hydrogels + SB, listed as SB", "value": "not as robust; also recorded: slightly reduced regenerative extent"}, {"measurement": "Engraftment frequency for 100-cell transplants", "setting": "[2]; young MuSCs cultured one week on soft hydrogel with 10 μM, one month post-transplant", "value": 45, "unit": "%"}, {"measurement": "Improvement of transplantation function of MuSCs cultured on rigid hydrogels", "setting": "[2]", "value": "does not support significant improvement"}, {"measurement": "Improvement of transplantation function of MuSCs cultured on rigid hydrogels", "setting": "[2]; listed as SB", "value": "did not support a similar SB-mediated improvement"}]}]}
